Test results taken from US9138423B2, “Use of inhibitors of porphobilinogen deaminase in the treatment of congenital erythropoietic porphyria” (Asociación Centro de Investigación Cooperativa en …, priority 2010, dated 2015).

Key:
[1] = target: porphobilinogen deaminase (PBGD) (Homo sapiens (Human), UniProt P08397); assay: Enzymatic assay of porphobilinogen deaminase catalytic activity (Lineweaver-Burk, inhibition constants); type: biochemical; conditions: for Ki: global data fitting of all values in presence of inhibitor, 37° C., pH 8.0, read-out: Ki (inhibition constant of the catalytic activity of the PBGD)
Experimental: Obtaining and purifying the enzyme: The enzyme is obtained and purified by following the method published by Millet O et al. (2009) Biochemistry 48: 454-461.
Enzymatic assay: The assay is based on the method described by Jordan (Shoolingin-Jordan P M et al. (1997). Methods in enzymology 281: 327-336) with some modifications. 10 μL of porphobilinogen deaminase (PBGD) at a concentration of 150 μM in 48 μL of buffer (20 mM Tris-HCl pH 8.0, NaCl 150 mM) is preheated at 37° C. for two minutes. If the assay is performed in the presence of an inhibitor, the latter is added in dissolved form into the buffer. 25 μL of the porphobilinogen (PBG) substrate are then added, diluted to different concentrations (0.15, 0.3, 0.45, 0.6, 0.9, 1.2, 1.5, 1.8, 2.1, 2.4, 2.7, 3, 3.3, 3.9 mM) in the aforementioned buffer and are incubated at 37° C. for five minutes. A control assay containing a buffer without substrate (PBG) in the same proportions is performed at the same time. The enzymatic reaction is stopped by means of freezing the samples in liquid nitrogen. Then the mixture is incubated again with 6 μL of 25 mM uroporphyrinogen 3 synthase (U3S) at 37° C. for 30 minutes to transform the pre-uroporphyrinogen into uroporphyrinogen III. The reaction is again stopped by means of freezing in liquid nitrogen. Then the formed […] uroporphyrinogens are oxidized to uroporphyrins by means of adding 25 μL of I2/KI solution and incubation for 10 minutes in ice and darkness. The iodine excess is then bleached by adding 25 μL of saturated sodium metabisulfite solution. […] Finally, different dilutions of the supernatant in 0.1 M HCl are prepared to measure the change of absorbance at 405 nm with respect to the control sample.
Calculation of inhibition constants: Inhibition constants have been calculated from the global data fitting of all values in presence of inhibitor according to the methodologies disclosed in the prior art (Structure and mechanism in protein Science, Alan Fersht, 1999, Ed. Freeman and Co. (New York), Pag. 105-115).

[2] = target: porphobilinogen deaminase of Arabidopsis thaliana (Arabidopsis thaliana (Mouse-ear cress), UniProt Q43316); conditions: Arabidopsis thaliana enzyme; non-specific chemical modification; cited from earlier work
[3] = target: Escherichia coli porphobilinogen deaminase (Escherichia coli (strain K12), UniProt P06983); conditions: Escherichia coli enzyme; cited from earlier work
Sequence of Escherichia coli porphobilinogen deaminase (P06983 whole entry): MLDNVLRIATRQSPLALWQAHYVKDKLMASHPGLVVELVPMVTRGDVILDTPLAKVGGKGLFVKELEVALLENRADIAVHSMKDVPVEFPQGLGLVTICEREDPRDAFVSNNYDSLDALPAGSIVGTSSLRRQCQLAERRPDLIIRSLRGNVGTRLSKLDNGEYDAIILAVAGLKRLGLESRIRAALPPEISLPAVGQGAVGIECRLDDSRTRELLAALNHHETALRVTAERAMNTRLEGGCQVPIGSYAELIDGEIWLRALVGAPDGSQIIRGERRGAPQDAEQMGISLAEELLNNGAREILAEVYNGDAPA

Sequence of porphobilinogen deaminase (PBGD) (P08397 whole entry): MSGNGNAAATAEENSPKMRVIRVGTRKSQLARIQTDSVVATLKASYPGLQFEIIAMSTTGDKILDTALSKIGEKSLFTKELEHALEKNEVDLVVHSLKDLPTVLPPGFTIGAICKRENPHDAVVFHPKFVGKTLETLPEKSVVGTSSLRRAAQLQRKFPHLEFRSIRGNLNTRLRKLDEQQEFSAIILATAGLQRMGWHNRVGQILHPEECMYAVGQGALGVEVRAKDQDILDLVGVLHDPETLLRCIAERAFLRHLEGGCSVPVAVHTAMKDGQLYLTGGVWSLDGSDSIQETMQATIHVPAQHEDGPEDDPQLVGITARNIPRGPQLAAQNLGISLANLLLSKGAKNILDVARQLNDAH
Sequence of porphobilinogen deaminase of Arabidopsis thaliana (Q43316 63-382): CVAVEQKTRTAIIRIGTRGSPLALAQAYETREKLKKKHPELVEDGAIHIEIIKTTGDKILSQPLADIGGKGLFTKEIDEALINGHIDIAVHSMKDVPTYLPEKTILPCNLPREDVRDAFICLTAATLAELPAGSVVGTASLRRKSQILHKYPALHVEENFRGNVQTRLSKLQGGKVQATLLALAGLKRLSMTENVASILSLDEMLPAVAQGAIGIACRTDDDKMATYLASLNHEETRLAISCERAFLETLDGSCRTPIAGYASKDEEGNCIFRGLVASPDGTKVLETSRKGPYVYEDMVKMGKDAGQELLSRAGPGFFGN

## Cc1c[nH]c(C)c1 [2,4-CH3-PYR, 2,4-dimethyl-1H-pyrrole]
[1]
  Ki: 6 µM

## Cc1ccc(C)[nH]1 [2,5-CH3-PYR, 2,5-dimethyl-1H-pyrrole]
[1]
  Ki: 3 µM

## OCCS [2-mercaptoethanol]
[2]
  effect on catalytic activity of porphobilinogen deaminase: significantly alter the catalytic activity

## N[C@H](Cc1c[nH]c2ccccc12)C(=O)O [DTRP, 2R-amino-3-(1H-indol-3-yl) propanoic acid]
[1]; increasing amounts of inhibitor, change in slope with same intercept
  type of inhibition of the catalytic activity of PBGD (Lineweaver-Burk plot): competitive inhibition

## CCN1C(=O)C=CC1=O [N-ethylmaleimide]
[2]
  effect on catalytic activity of porphobilinogen deaminase: low inhibition
[3]
  effect on catalytic activity of porphobilinogen deaminase: strongly deactivates
